{
  "source": "paper PMC12389534",
  "about": "“Unlocking Therapeutic Potential of Novel Thieno-Oxazepine Hybrids as Multi-Target Inhibitors of AChE/BChE and Evaluation Against Alzheimer’s Disease: In Vivo, In Vitro, Histopathological, and Docking Studies” (Pharmaceuticals, 2025)",
  "key": {"[1]": {"system": "SOD", "experiment": "Brain SOD activity (colorimetric)", "assay_type": "in vivo, rat", "settings": "brain tissue, AlCl3-induced AD rats; mean ± SE, n = 6", "method": "(§1) The brain tissues of the rats were removed and rigorously washed in isotonic saline 24 h after they were euthanized following the last behavioral test. For histological investigation, four brains per group were preserved for the whole night in 10% neutral buffered formalin. The remaining six brains were split into two sections each. In order to create a 10% homogenate (w/v), the first component was instantaneously homogenized using an ice-cold solution that included 300 mM sucrose and 50 mM Tris-HCl (pH 7.4). The homogenate was centrifuged at 1800× g for 10 min at 4 °C for biochemical tests, and the supernatant was thereafter kept at −20 °C. The second portion was set aside for use in RT-PCR analysis at −80 °C [94].\n(§2) The SOD enzyme activity was estimated using the Marklund et al. method, which is founded on the enzyme’s capacity to decrease the nitro blue tetrazolium dye at a wavelength of 540 nm. To evaluate the TAC, a colorimetric approach was employed to estimate the amount of hydrogen peroxide that remains after 3,5-dichloro-2-hydroxybenzene sulphonate is converted to a colored product at 660 nm."}, "[2]": {"system": "BDNF", "experiment": "Brain BDNF level (ELISA)", "assay_type": "in vivo, rat", "settings": "AlCl3-induced AD rats; for BDNF (ng/mL): brain tissue, mean ± SE, n = 6", "method": "as §1\n(§3) See Supplementary Information."}, "[3]": {"target": "T1, AChE (Homo sapiens, UniProt P22303)", "T1 construct": "purchased BioVision K197-100", "T1 sequence (P22303 32-614)": "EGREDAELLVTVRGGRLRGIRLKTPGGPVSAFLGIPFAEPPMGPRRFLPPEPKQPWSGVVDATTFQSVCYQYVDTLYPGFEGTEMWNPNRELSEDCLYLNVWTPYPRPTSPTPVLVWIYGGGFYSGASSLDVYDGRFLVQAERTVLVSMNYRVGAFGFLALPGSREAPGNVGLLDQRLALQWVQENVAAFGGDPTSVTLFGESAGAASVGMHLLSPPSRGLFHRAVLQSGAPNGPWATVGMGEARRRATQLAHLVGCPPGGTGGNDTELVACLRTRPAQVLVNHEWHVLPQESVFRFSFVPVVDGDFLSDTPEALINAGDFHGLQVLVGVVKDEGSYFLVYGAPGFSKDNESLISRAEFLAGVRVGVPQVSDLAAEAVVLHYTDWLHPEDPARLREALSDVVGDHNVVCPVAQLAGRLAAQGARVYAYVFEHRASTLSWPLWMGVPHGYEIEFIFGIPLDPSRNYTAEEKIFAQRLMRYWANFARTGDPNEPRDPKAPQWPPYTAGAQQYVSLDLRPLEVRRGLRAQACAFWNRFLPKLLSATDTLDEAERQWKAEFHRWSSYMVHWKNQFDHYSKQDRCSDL", "experiment": "biochemical", "settings": "colorimetric kit, 412 nm", "method": "All newly created compounds were subjected to an AChE enzyme inhibitory screening. This was performed with the Colorimetric AChE Inhibitor Screening Kit (BioVision Catalog # K197-100). The 96-well assay kit provides a rapid, simple, and reliable way to screen for AChE inhibitors in large quantities. […] A completely transparent 96-well plate with a flat bottom was loaded with 10 µL of test inhibitors that were diluted (20×). […] A measure of 10 μL of diluted AChE was applied to each well that contained compounds, inhibitor control, and solvent control. […] Measures of 25 μL of AChE assay buffer, 5 μL of probe mix, and 10 μL of diluted AChE substrate were mixed to create the reaction mix. The reaction mix was mixed with the compound, enzyme control, and inhibitor control. […] The IC50 was calculated using nonlinear regression analysis using the response–concentration (log) curve."}, "[4]": {"system": "β-catenin", "experiment": "Brain β-catenin level", "assay_type": "in vivo, rat", "settings": "AlCl3-induced AD rats; for β-Catenin (ng/L): mean ± SE, n = 6", "method": "as §1, §3"}, "[5]": {"system": "AChE", "assay_type": "in vivo", "set-up": "reduction in AChE levels: concentration or dose not given beside the values", "settings": "AlCl3-induced AD rats; for AChE (ng/g Tissue): brain tissue, mean ± SE, n = 6; for reduction in AChE levels: brain"}, "[6]": {"system": "Nrf-2", "experiment": "Nrf-2 mRNA expression (RT-qPCR)", "assay_type": "in vivo, rat", "settings": "AlCl3-induced AD rats; for Nrf-2: mRNA expression in brain tissue, mean ± SE, n = 6", "method": "as §1, §3"}, "[7]": {"system": "Wnt3a", "experiment": "Brain Wnt3a level", "assay_type": "in vivo, rat", "settings": "AlCl3-induced AD rats; for Wnt3a (ng/g Tissue): mean ± SE, n = 6", "method": "as §1, §3"}, "[8]": {"system": "Caspase-1", "experiment": "Caspase-1 gene expression (RT-qPCR)", "assay_type": "in vivo, rat", "set-up": "reduction of Caspase-1 levels: concentration or dose not given beside the values", "settings": "AlCl3-induced AD rats; for Caspase-1: gene expression, mean ± SE, n = 6", "method": "as §1, §3"}, "[9]": {"system": "TNF-α", "experiment": "Brain TNF-α level (ELISA)", "assay_type": "in vivo, rat", "settings": "AlCl3-induced AD rats; for TNF-α (pg/g Tissue): mean ± SE, n = 6", "method": "as §1, with “[94]. […]” for “[94].”"}, "[10]": {"system": "AlCl3-induced AD rat model", "experiment": "Morris water maze (MWM) test in AlCl3-induced AD rats", "assay_type": "in vivo", "settings": "for Learning (s): escape latency; for Learning (s) / Memory (s): mean ± SE, n = 6; for Memory (s): time spent in target quadrant", "procedure,_shortened": "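Male Sprague Dawley rats, 300–320 g, trained in a 150 cm pool with opaque water (25 ± 2 °C) and a 10 cm platform 2 cm submerged. Four trials daily for three days, 60 s limit, 20 s on platform; escape latency recorded. Day-4 probe without platform, 60 s, time in target quadrant counted.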"}, "[11]": {"system": "BAX", "experiment": "BAX gene expression (RT-qPCR)", "assay_type": "in vivo, rat", "settings": "AlCl3-induced AD rats; for BAX: gene expression, mean ± SE, n = 6", "method": "as §1, §3"}, "[12]": {"system": "TAC", "experiment": "Brain TAC (colorimetric)", "assay_type": "in vivo, rat", "settings": "AlCl3-induced AD rats; for TAC (µmol/g Tissue): brain tissue, mean ± SE, n = 6", "method": "as §1, §2"}, "[13]": {"system": "brain tissue (CC, ST, FD, SN neurons)", "experiment": "Histopathological examination of brain tissue", "assay_type": "in vivo, rat", "settings": "brain sections, H&E; AlCl3-induced AD rats", "method": "as §1\nBrain tissue samples were stationed in 10% formalin for 24 h, washed with water, and then serially diluted with alcohol to induce dehydration. After being submerged in paraffin, the specimens were cut into segments that were 4 µm thick using a microtome."}, "[14]": {"system": "IL-1β", "experiment": "Brain IL-1β level (ELISA)", "assay_type": "in vivo, rat", "set-up": "reduction in IL-1β levels: concentration or dose not given beside the values", "settings": "AlCl3-induced AD rats; for IL-β (pg/g Tissue): mean ± SE, n = 6", "method": "as §1, with “[94]. […]” for “[94].”"}, "[15]": {"system": "Bcl-2", "experiment": "Bcl-2 gene expression (RT-qPCR)", "assay_type": "in vivo, rat", "settings": "AlCl3-induced AD rats; for Bcl-2: gene expression, mean ± SE, n = 6", "method": "as §1, §3"}},
  "note": "Entries after “also recorded” stand apart in the source; their conditions may differ.",
  "data": [
    {"smiles": "CCOC(=O)c1c(O)sc2c1CCCCC2", "note": "[Compound 2, Ethyl 2-hydroxy-5,6,7,8-tetrahydro-4H-cyclohepta[b]thiophene-3-carboxylate]", "values": [
      {"measurement": "SOD(U/g)", "setting": "[1]", "value": "0.68 ± 0.26 ^abc U/g"},
      {"measurement": "BDNF (ng/mL)", "setting": "[2]", "value": "64.95 ± 0.01 ^abc ng/mL"},
      {"measurement": "IC50", "setting": "[3]", "value": "1.1 ± 0.04", "unit": "µM"},
      {"measurement": "elevation of β-catenin levels", "setting": "[4]", "value": 2.7, "unit": "fold"},
      {"measurement": "β-Catenin (ng/L)", "setting": "[4]", "value": "4.262 ± 0.12 ^abc ng/L"},
      {"measurement": "AChE (ng/g Tissue)", "setting": "[5]", "value": "51.41 ± 0.13 ^abc ng/g Tissue"},
      {"measurement": "reduction in AChE levels", "setting": "[5]", "value": 23.6, "unit": "%"},
      {"measurement": "Nrf-2", "setting": "[6]", "value": "0.25 ± 0.008 ^abc"},
      {"measurement": "elevation of Wnt3a levels", "setting": "[7]", "value": 2, "unit": "fold"},
      {"measurement": "Wnt3a (ng/g Tissue)", "setting": "[7]", "value": "0.25 ± 0.01 ^abc ng/g Tissue"},
      {"measurement": "Caspase-1", "setting": "[8]", "value": "7.46 ± 0.120 ^abc"},
      {"measurement": "decline in TNF-α levels", "setting": "[9]", "value": 31, "unit": "%"},
      {"measurement": "TNF-α (pg/g Tissue)", "setting": "[9]", "value": "121.4 ± 0.97 ^abc pg/g Tissue"},
      {"measurement": "reduction in escape latency", "setting": "[10]", "value": 32.2, "unit": "%"},
      {"measurement": "Learning (s)", "setting": "[10]", "value": "33.33 ± 0.8 ^abc s"},
      {"measurement": "Memory (s)", "setting": "[10]", "value": "24.17 ± 1.22 ^abc s"},
      {"measurement": "suppression of BAX gene expression", "setting": "[11]", "value": 16, "unit": "%"},
      {"measurement": "BAX", "setting": "[11]", "value": "8.13 ± 0.070 ^abc"},
      {"measurement": "improvement of TAC levels", "setting": "[12]", "value": 1.9, "unit": "times"},
      {"measurement": "TAC (µmol/g Tissue)", "setting": "[12]", "value": "18.26 ± 0.395 ^abc µmol/g Tissue"},
      {"measurement": "histopathological finding in CC, ST, FD and SN (NP = nuclear pyknosis)", "setting": "[13]", "value": "moderate NP in CC, FD, and SN, in addition to normal histology in ST; also recorded: significant NP in the CC, FD, and SN, whereas the striatal neurons’ histological structures remained normal"},
      {"measurement": "reduction in IL-1β levels", "setting": "[14]", "value": 20.6, "unit": "%"},
      {"measurement": "IL-β (pg/g Tissue)", "setting": "[14]", "value": "93.93 ± 1.26 ^abc pg/g Tissue"},
      {"measurement": "Bcl-2", "setting": "[15]", "value": "0.27 ± 0.007 ^abc"}
    ]},
    {"smiles": "COc1ccc(N2CC(=O)Oc3sc4c(c3C2=O)CCCCC4)cc1", "note": "[Compound 16, 4-(4-Methoxyphenyl)-3,4,7,8,9,10-hexahydro-6H-cyclohepta[4,5]thieno[3,2-f][1,4]oxa-zepine-2,5-dione]", "values": [
      {"measurement": "SOD(U/g)", "setting": "[1]", "value": "2.92 ± 0.20 ^abc U/g"},
      {"measurement": "elevation of BDNF levels", "setting": "[2]", "value": 3.1, "unit": "fold"},
      {"measurement": "BDNF (ng/mL)", "setting": "[2]", "value": "134.8 ± 0.01 ^abc ng/mL"},
      {"measurement": "IC50", "setting": "[3]", "value": "0.76 ± 0.03", "unit": "µM"},
      {"measurement": "elevation of β-catenin levels", "setting": "[4]", "value": 4.6, "unit": "fold"},
      {"measurement": "β-Catenin (ng/L)", "setting": "[4]", "value": "7.34 ± 0.12 ^abc ng/L"},
      {"measurement": "AChE (ng/g Tissue)", "setting": "[5]", "value": "16.83 ± 0.29 ^abc ng/g Tissue"},
      {"measurement": "reduction in AChE levels", "setting": "[5]", "value": 75, "unit": "%"},
      {"measurement": "elevation of Nrf-2 mRNA expression", "setting": "[6]", "value": 2.9, "unit": "fold"},
      {"measurement": "Nrf-2", "setting": "[6]", "value": "0.47 ± 0.005 ^abc"},
      {"measurement": "elevation of Wnt3a levels", "setting": "[7]", "value": 5.5, "unit": "fold"},
      {"measurement": "Wnt3a (ng/g Tissue)", "setting": "[7]", "value": "0.52 ± 0.01 ^abc ng/g Tissue"},
      {"measurement": "reduction of Caspase-1 levels", "setting": "[8]", "value": 47, "unit": "%"},
      {"measurement": "Caspase-1", "setting": "[8]", "value": "5.04 ± 0.130 ^abc"},
      {"measurement": "decline in TNF-α levels", "setting": "[9]", "value": 51.6, "unit": "%"},
      {"measurement": "TNF-α (pg/g Tissue)", "setting": "[9]", "value": "85.17 ± 0.46 ^abc pg/g Tissue"},
      {"measurement": "increase in quadrant residence time", "setting": "[10]", "value": 3.6, "unit": "times"},
      {"measurement": "Learning (s)", "setting": "[10]", "value": "26.83 ± 1.2 ^abc s"},
      {"measurement": "Memory (s)", "setting": "[10]", "value": "36.00 ± 1.27 ^abc s"},
      {"measurement": "suppression of BAX gene expression", "setting": "[11]", "value": 36.5, "unit": "%"},
      {"measurement": "BAX", "setting": "[11]", "value": "6.14 ± 0.090 ^abc"},
      {"measurement": "improvement of TAC levels", "setting": "[12]", "value": 4.4, "unit": "times"},
      {"measurement": "TAC (µmol/g Tissue)", "setting": "[12]", "value": "42.42 ± 0.84 ^abc µmol/g Tissue"},
      {"measurement": "histopathological finding in CC, ST, FD and SN (NP = nuclear pyknosis)", "setting": "[13]", "value": "mild NP in neurons in CC, as well as moderate NP in neurons of ST, FD, and SN; also recorded: minor NP in the CC and significant NP in FD, ST, and SN"},
      {"measurement": "reduction in IL-1β levels", "setting": "[14]", "value": 55.2, "unit": "%"},
      {"measurement": "IL-β (pg/g Tissue)", "setting": "[14]", "value": "53.04 ± 0.61 ^abc pg/g Tissue"},
      {"measurement": "upregulation of Bcl-2 gene expression", "setting": "[15]", "value": 5.2, "unit": "fold"},
      {"measurement": "Bcl-2", "setting": "[15]", "value": "0.63 ± 0.020 ^abc"}
    ]}
  ]
}
